# From patent US12714702B2, “Compositions and methods for treating or preventing pulmonary hypertension” (priority 2020, dated 2026)
# Experiments:
# [1] = tested on: pulmonary arteries of MCT-induced PAH animals; test: MCT model, trichrome staining of lung sections and medial wall thickness; assay type: in vivo, rat; conditions: MCT rats
# Source text: At the end of treatment period with QA, animals were sacrificed. Chest was surgically opened to expose rat lungs. Lung tissues were collected, and blinded tissues were sectioned by Reveal Bio (San Diego, CA) at 5 μm thickness. 2 tissue sections for each animal were earmarked for Trichrome staining; and 8 more sections were provided blank for custom staining.
# Tissue sections were stained using trichrome staining to visualize pulmonary arteries for all treatment and control groups. Stained lung sections were imaged using Zeiss Axio Scope A1 microscope equipped with Axiocam 506 color camera and Zeiss Zen 2.3 software. Medial wall thickness for similar sized pulmonary arteries was measured using a Motic BA210 microscope and measurements were made using Motic Image plus 2.0 software. Five pulmonary artery walls were analyzed per animal (n=2 to 5)
# Additionally, lung tissue sections from the MCT-induced PAH lung tissue were examined using trichrome staining.
# Medial wall thickness of pulmonary arteries was measured using the trichrome stained microscopic images.
# [2] = tested on: MCT-induced rodent model of pulmonary hypertension; test: Monocrotaline (MCT) induced therapeutic rat model of pulmonary hypertension, hemodynamics; assay type: in vivo; conditions: MCT rats, QA 10 mg/kg s.c. once-a-day for 10 days starting 3 weeks after MCT
# Procedure: Adult male SD rats were injected with MCT (50 mg/kg) by subcutaneous injection. QA administration was initiated 21 days (3 weeks) after MCT administration, once-a-day by subcutaneous route at 10 mg/kg for 10 days. […] Data represent mean±SEM (n=5). *p<0.05.
# Preclinical in-vivo studies for QA were earlier performed at a dose of 10 mg/kg once-a-day in monocrotaline (MCT) induced therapeutic PAH model. Hemodynamic parameters were collected and lung tissues were also collected and were sectioned for visualizing the impact of QA treatment on various PAH biomarkers in-vivo.
# To determine the therapeutic activity of QA against PH, the drug was tested using chronic hemodynamic studies in a monocrotaline (MCT)-induced rodent model of pulmonary hypertension. MCT induction is a well established preliminary model, with a single subcutaneous injection of MCT producing chronic PH-like symptoms in rats over a course of 3-4 weeks. Briefly, MCT was subcutaneously injected in adult male Sprague Dawley (SD) rats at 50 mg/kg, and rats were housed for 3 weeks with free access to food and water. […] At the end of day 10, animals were anesthetized to determine right ventricular systolic pressure (RVSP) by RV catheterization, and RV hypertrophy (RVH) was measured by collecting the heart-lung blocks.
# primary human PASMC = test: Standard cell proliferation, CyQUANT Direct; assay type: cell-based; conditions: Day 3 and Day 5, single QA treatment at 3.1 and 6.2 μM
# Procedure: Primary human PASMC were treated with QA up to 6.2 μM concentration. Cell proliferation was quantified by Cyquant Direct.
# Cellular proliferation for diseased IPAH SMC II (Patient ID: L164) cells was evaluated using CyQUANT™ Direct Cell Proliferation Assay (ThermoFisher Scientific, Waltham, MA, USA). Briefly, upon 90% confluency, SMCs were harvested and seeded in TC-treated 96-well plates at a density of 1000 cells/well and were allowed to adhere overnight.
# Human or bovine PASMC were treated with varying concentrations of QA (1.5-, 3.1-, and 6.2-μM). Cellular proliferation was measured at day 1, day 3 and day 5 by following the manufacturer's protocol. Briefly, a reagent mix of nucleic acid stain and background suppressor were added in PBS followed by addition of the mix in treatment wells (100 μL/well). The plates were incubated at 37° C./5% CO2 for one hour followed by evaluation of fluorescence at 485 ex/535 em. Proliferation inhibition was analyzed relative to control wells on each time point. Data was averaged from two trials with n=6 for SMC II and one trial of n=4 for SMC III.
# In-vitro studies to measure anti-proliferative activity of QA against pulmonary hypertension were performed using primary human PASMC (FIG. 3), primary bovine PASMC (FIG. 4) and high altitude PASMC (HAPASMC) (FIG. 4). […]
compound,measurement,setting,value
"CCN(CC)CCCC(C)Nc1c2ccc(Cl)cc2nc2ccc(OC)cc12 (stereo not shown) [QA, quinacrine]",medial wall thickness of pulmonary arteries,[1]; compared to sham control animals,back to almost normal
same,collagen and muscular deposition in pulmonary arterioles,[1]; trichrome staining,significant reduction
same,right ventricular systolic pressure (RVSP),[2],39.9±1.8 mm Hg
same,cellular hyper-proliferation,primary human PASMC,Significant reduction
